Patent publication US7108845B2, “Methods of synthesis and use of radiolabelled platinum chemotherapeutic agents” (Australian Nuclear Science & Technology Organisation, priority 2000, dated 2006)

What was measured:
oesophageal cancer [1] = assay: Pilot clinical study: imaging of uptake of ^195mPt-Cisplatin in lesions; assay type: in vivo, patients
Experimental: As part of a pilot study to evaluate the use of ^195mPt-Cisplatin and ^195mPt Carboplatin for prognosis of cancer, two patients were injected with ^195mPt-Cisplatin prepared as described in Example 2.
(§1) Patient No. 1 had oesophageal cancer, with one large lesion in the mediastinal region and large metastases in the liver. F-18-DG imaging confirmed the presence of both lesions. The patient was injected with ^195mPt-Cisplatin (100 MBq; specific activity 4.2 MBq/mg cisplatin) and imaged over a 5 day period. […] The patient was placed on a normal cisplatin chemotherapy in combination with radiation.
Patient No. 2 had oesophageal cancer. CT confirmed a large lesion in the mediastinal region. The patient was injected with ^195mPt-Cisplatin (50 MBq: specific activity 3.6 MBq/mg cisplatin) and Imaged over a 3 day period. […] The patient has undergone cisplatin chemotherapy and is being monitored for response to treatment.

oesophageal cancer [2] = assay: Response to normal cisplatin chemotherapy in combination with radiation; assay type: in vivo, patients; conditions: Patient No. 1, after 2 months
Experimental: as §1

N.N.[Cl][195Pt][Cl] [^195mPt-Cisplatin, [^195mPt]Cisplatin]
uptake of the radiolabelled cisplatin in lesions (oesophageal cancer [1]; Patient No. 1, lesion in mediastinal region and liver metastases, injected 100 MBq (4.2 MBq/mg cisplatin), imaged over a 5 day period): negligible uptake | uptake of the ^195mPt-Cisplatin in the mediastinal region (oesophageal cancer [1]; Patient No. 2, large lesion in mediastinal region, injected 50 MBq (3.6 MBq/mg cisplatin), imaged over a 3 day period): significant uptake

N.N.[Cl][Pt][Cl] [cisplatin, cis-dichlorodiammine-platinum(II)]
response to treatment (oesophageal cancer [2]): no evidence of response to treatment
